The record followed here is ChEMBL document CHEMBL1201862, “PubChem BioAssay data set” (2004).

Test systems include 786-0; A549; BT-549; COLO 205; IGROV-1; M14; MDA-MB-231; MDA-MB-435; MDA-N; NCI-H226; NCI/ADR-RES; OVCAR-4; RXF 393; SNB-19; TK-10; UACC-257; UACC-62; A498; HT-29.
Common to all, as to assay: DTP human tumour cell line panel, 48 h

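Briefly, cells in 96-well plates were exposed to five compound concentrations for 48 h, and endpoints were estimated by linear interpolation. At the GI50, growth is halved.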 Active and inactive are the calls of the source. Rule as the data show it: active = GI50 up to about 1.1 µM and inactive = higher. A value given as a limit tells only on which side of the number the result lay.

What is called GI50 is the concentration at which growth is held to half of that of the control. Consider `Nc1ncnc2c1ncn2C1OC(CO)CC1O` (stereo not drawn), for which the GI50 in the experiment with 786-0 was 17.5 µM (inactive); with A549 it was 75.7 µM (inactive); in the experiment with BT-549, 29.9 µM (inactive); in the experiment with COLO 205, 93.5 µM (inactive); with IGROV-1, > 100 µM (inactive); in the experiment on M14, 38.2 µM (inactive). For the same molecule, the GI50 is 17.9 µM (inactive) with MDA-MB-231; > 10 µM (inactive) with MDA-MB-435; 38.7 µM (inactive) in the experiment on MDA-N; > 100 µM (inactive) in the experiment on NCI-H226; 20.3 µM (inactive) with NCI/ADR-RES; > 100 µM (inactive) with OVCAR-4. Also, the GI50 in the experiment on RXF 393 was > 100 µM (inactive); in the experiment on SNB-19, 26.9 µM (inactive); in the experiment with TK-10, > 100 µM (inactive); in the experiment with UACC-257, > 100 µM (inactive); with UACC-62 it was 36.6 µM (inactive).

Take `COc1cc2c(cc1OC)CC1c3cc(OC)c(OC)cc3CCN1CC2` (stereo not drawn): the GI50 is > 100 µM (inactive) in the experiment with 786-0; > 100 µM (inactive) in the experiment with A498; > 100 µM (inactive) with A549; > 100 µM (inactive) in the experiment on BT-549; > 100 µM (inactive) in the experiment on COLO 205; 27.5 µM (inactive) with HT-29. Also, the GI50 in the experiment on IGROV-1 was 52.8 µM (inactive); in the experiment on M14, > 100 µM (inactive); in the experiment on MDA-MB-231, > 100 µM (inactive); with MDA-MB-435, 40.3 µM (inactive); in the experiment on NCI-H226 it was 19.6 µM (inactive); with NCI/ADR-RES, 63.2 µM (inactive). Also, the GI50 in the experiment with OVCAR-4 is > 100 µM (inactive); with RXF 393, 83.6 µM (inactive); with SNB-19, 0.49 µM (active); in the experiment on TK-10 it was > 100 µM (inactive); in the experiment with UACC-257 it was > 100 µM (inactive); in the experiment with UACC-62, 67 µM (inactive).

On to `c1ccc2c(c1)ncn2CCn1ccnc1`, for which the GI50 in the experiment with 786-0, in the experiment with A498, in the experiment on A549, in the experiment on BT-549, in the experiment on COLO 205 and in the experiment on HT-29 was > 100 µM (inactive) each time. Moreover, the GI50 in the experiment with IGROV-1, in the experiment on M14, in the experiment on MDA-MB-231, in the experiment on MDA-MB-435, in the experiment with NCI-H226 and in the experiment with NCI/ADR-RES was > 100 µM (inactive) throughout. Also, the GI50 is 15.8 µM (inactive) with OVCAR-4; > 100 µM (inactive) in the experiment on RXF 393; > 100 µM (inactive) with SNB-19; > 100 µM (inactive) in the experiment on TK-10; > 100 µM (inactive) in the experiment with UACC-62.

`C=CCCCC1CCCNC1=S` (stereo not drawn): the GI50 in the experiment with 786-0, in the experiment on A498, in the experiment on A549, in the experiment with BT-549, with HT-29 and with IGROV-1 was > 100 µM (inactive) each time. The GI50 in the experiment with M14, in the experiment with MDA-MB-231, in the experiment on MDA-MB-435, in the experiment on MDA-N, in the experiment with NCI-H226 and in the experiment on OVCAR-4 was > 100 µM (inactive) each time. In addition, the GI50 with RXF 393, with SNB-19, with TK-10, with UACC-257 and in the experiment on UACC-62 was > 100 µM (inactive) each time.

On to `O=C1Oc2ccccc2N/C1=C/C(=O)c1ccc([N+](=O)[O-])cc1`, for which the GI50 in the experiment on 786-0 was > 100 µM (inactive); in the experiment with A498 it was > 100 µM (inactive); with A549, > 100 µM (inactive); in the experiment with BT-549, 98.2 µM (inactive); in the experiment on COLO 205 it was > 100 µM (inactive); in the experiment with HT-29, > 100 µM (inactive). Further, the GI50 in the experiment on IGROV-1, in the experiment with M14, in the experiment on MDA-MB-231, in the experiment on MDA-MB-435, with NCI-H226 and in the experiment on NCI/ADR-RES was > 100 µM (inactive) in each case. In addition, the GI50 in the experiment on OVCAR-4 is > 100 µM (inactive); with RXF 393, > 100 µM (inactive); in the experiment with SNB-19, > 100 µM (inactive); with TK-10, > 100 µM (inactive); with UACC-257 it was > 100 µM (inactive); in the experiment with UACC-62, 45.8 µM (inactive).

`Cc1cc(O)c(C(C)C)cc1C(=S)Nc1ccc(Cl)cc1`: the GI50 was 14.1 µM (inactive) in the experiment with 786-0; 15.1 µM (inactive) in the experiment on A498; 16.5 µM (inactive) with BT-549; 16.1 µM (inactive) with COLO 205; 14.8 µM (inactive) in the experiment on HT-29; 3.32 µM (inactive) with IGROV-1. Moreover, the GI50 with MDA-MB-435 is 10.6 µM (inactive); with MDA-N, 11.4 µM (inactive); with NCI/ADR-RES, 12.9 µM (inactive); in the experiment with OVCAR-4, 7.19 µM (inactive); with UACC-257, 10.9 µM (inactive); in the experiment with UACC-62 it was 10 µM (inactive).

For `c1ccc(Nc2nnc(-c3ccccc3Nc3ccccc3-c3nnc(Nc4ccccc4)s3)s2)cc1`, the GI50 in the experiment on 786-0 is > 100 µM (inactive); in the experiment with BT-549, > 100 µM (inactive); with COLO 205, > 100 µM (inactive); in the experiment on HT-29 it was > 100 µM (inactive); with IGROV-1, 7.14 µM (inactive); in the experiment on M14, > 100 µM (inactive). In addition, the GI50 in the experiment with MDA-MB-435, with MDA-N, in the experiment with NCI-H226, with NCI/ADR-RES, with OVCAR-4 and in the experiment on RXF 393 was > 100 µM (inactive) each time. Also, the GI50 with SNB-19, in the experiment on TK-10, with UACC-257 and in the experiment on UACC-62 was > 100 µM (inactive) in each case.

For the molecule `OC1CN2CCS[C@H]2C(O)C1O` (stereo partly drawn), the GI50 in the experiment with 786-0, with A498, in the experiment on A549, in the experiment on BT-549, with COLO 205 and in the experiment on HT-29 was > 100 µM (inactive) throughout. In addition, the GI50 in the experiment on IGROV-1, in the experiment on M14, in the experiment on MDA-MB-231, with MDA-MB-435, in the experiment on NCI-H226 and in the experiment with NCI/ADR-RES was > 100 µM (inactive) in each case. For the same molecule, the GI50 in the experiment on OVCAR-4, in the experiment on RXF 393, with SNB-19, in the experiment with TK-10, in the experiment with UACC-257 and with UACC-62 was > 100 µM (inactive) throughout.

`ClC1=C(Cc2ccccc2)Cc2ccc3c(c21)CCC3`: the GI50 was 30.4 µM (inactive) in the experiment on 786-0; 33.6 µM (inactive) in the experiment with A549; 31.1 µM (inactive) with BT-549; 13.4 µM (inactive) in the experiment on COLO 205; 22.6 µM (inactive) in the experiment with HT-29; 41.9 µM (inactive) in the experiment with IGROV-1. Besides, the GI50 with M14 is > 100 µM (inactive); in the experiment with MDA-MB-231 it was 21.8 µM (inactive); in the experiment with MDA-MB-435 it was 28 µM (inactive); with MDA-N, 36.6 µM (inactive); in the experiment on NCI-H226 it was 23 µM (inactive); with OVCAR-4 it was 9.23 µM (inactive). For the same molecule, the GI50 was 19.7 µM (inactive) in the experiment on RXF 393; 21.5 µM (inactive) with SNB-19; 72.3 µM (inactive) in the experiment on TK-10; 23.1 µM (inactive) in the experiment with UACC-257; 27.6 µM (inactive) in the experiment on UACC-62.

`CNC(=O)OCC1C2=C(C(=O)C(C)=C(N)C2=O)N2CC3C(N3C)C12OC` (stereo not drawn): the GI50 is 4.02 µM (inactive) in the experiment with 786-0; 15.3 µM (inactive) with A498; 1.83 µM (inactive) in the experiment on A549; 31.8 µM (inactive) in the experiment with BT-549; 13.6 µM (inactive) in the experiment on COLO 205; 10.3 µM (inactive) in the experiment on HT-29. For the same molecule, the GI50 is 12.4 µM (inactive) with IGROV-1; 7.24 µM (inactive) in the experiment on M14; > 100 µM (inactive) in the experiment with MDA-MB-231; 38.1 µM (inactive) in the experiment with MDA-MB-435; 32.1 µM (inactive) in the experiment with NCI-H226; 32.5 µM (inactive) in the experiment on NCI/ADR-RES. In addition, the GI50 with OVCAR-4 is 15.7 µM (inactive); in the experiment with RXF 393, 21.3 µM (inactive); in the experiment on SNB-19, 3.3 µM (inactive); with TK-10 it was 27.7 µM (inactive); in the experiment with UACC-257, 21.4 µM (inactive); with UACC-62, 9.93 µM (inactive).

Take `CCOC(=O)c1sc2nc(SC)nc3c2c1NC(=O)CN3c1ccc(F)cc1`: the GI50 in the experiment with A498 was 47.6 µM (inactive); in the experiment with A549, 18.6 µM (inactive); in the experiment on BT-549 it was 19.5 µM (inactive); with COLO 205, 68.9 µM (inactive); in the experiment with HT-29, 44.6 µM (inactive); in the experiment with IGROV-1 it was > 100 µM (inactive). In addition, the GI50 in the experiment on M14 is 37.9 µM (inactive); in the experiment with MDA-MB-231 it was 26.9 µM (inactive); with MDA-MB-435, 32.3 µM (inactive); in the experiment with MDA-N, 37.9 µM (inactive); with NCI-H226, 41.7 µM (inactive); in the experiment with OVCAR-4, 21.4 µM (inactive). Besides, the GI50 with RXF 393 is 18.8 µM (inactive); in the experiment with SNB-19, 27.8 µM (inactive); in the experiment with TK-10 it was 30.7 µM (inactive); with UACC-257, 68.7 µM (inactive); with UACC-62 it was 47 µM (inactive).

In the case of `CCNC(=O)Nc1cccc(NC(=O)NCC)n1`, the GI50 in the experiment with 786-0 was > 100 µM (inactive); in the experiment on A498 it was 60.1 µM (inactive); in the experiment on A549, > 100 µM (inactive); in the experiment on BT-549 it was > 100 µM (inactive); with COLO 205, > 100 µM (inactive); with HT-29 it was 76.4 µM (inactive). Also, the GI50 in the experiment on IGROV-1, with M14, with MDA-MB-231, in the experiment with MDA-MB-435, in the experiment with MDA-N and in the experiment with NCI-H226 was > 100 µM (inactive) in each case. For the same molecule, the GI50 is > 100 µM (inactive) with OVCAR-4; > 100 µM (inactive) with RXF 393; > 100 µM (inactive) in the experiment with SNB-19; 50.2 µM (inactive) in the experiment with TK-10; 92.9 µM (inactive) in the experiment with UACC-257; 36 µM (inactive) in the experiment on UACC-62.
